Experimental findings from patent US7235539B2, “6-Hydroxyequilenins as estrogenic agents” (Wyeth, priority 2002, dated 2007) are described below.

For one assay, the target named is T1, human ERβ (Homo sapiens, UniProt Q92731).
T1 construct: M214–Q530 of human ERβ; Flag (C); made in house; host or cells: E. coli BL21(DE3), clarified lysate
Put plainly: Radioligand binding competition with [3H]-17β-estradiol, ERβ. The note with it: human ERβ ligand binding domain extract, read-out: ER-β IC50.

Another assay deals with T2, human ERα (Homo sapiens, UniProt P03372).
T2 construct: amino acids M250–V595 of human ERα; His tag (N); made in house; host or cells: E. coli BL21(DE3), clarified lysate
T2 sequence (P03372 250-595): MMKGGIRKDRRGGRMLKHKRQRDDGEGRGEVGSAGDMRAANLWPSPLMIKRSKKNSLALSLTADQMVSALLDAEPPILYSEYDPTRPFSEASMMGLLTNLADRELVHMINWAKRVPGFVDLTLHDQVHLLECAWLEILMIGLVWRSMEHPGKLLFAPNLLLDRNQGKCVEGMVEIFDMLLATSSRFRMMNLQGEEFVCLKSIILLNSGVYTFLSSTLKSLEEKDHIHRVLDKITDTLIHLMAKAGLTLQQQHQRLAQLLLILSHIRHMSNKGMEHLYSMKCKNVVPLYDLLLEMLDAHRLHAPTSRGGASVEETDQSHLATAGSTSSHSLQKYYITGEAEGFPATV
Put plainly: Radioligand binding competition with [3H]-17β-estradiol, ERα. To be noted: human ERα ligand binding domain extract, read-out: ER-α IC50.

For assay [1], the system named is metallothionein-II mRNA in Saos-2 cells (via ERβ). In words: Regulation of metallothionein II mRNA in Saos-2 cells. The assay is classed as cell-based. The text has this:
Estrogens acting through ERβ, but not ERα can upregulate metallothionein II mRNA levels in Saos-2 cells as described by Harris [Endocrinology 142: 645–652 (2001)]. Results from this test procedure can be combined with results from the test procedure described below (ERE reporter test procedure) to generate a selectivity profile for compounds of this invention (see also WO 00/37681).

pIC50: −log10 of the molar value.

T1 sequence (Q92731 214-530): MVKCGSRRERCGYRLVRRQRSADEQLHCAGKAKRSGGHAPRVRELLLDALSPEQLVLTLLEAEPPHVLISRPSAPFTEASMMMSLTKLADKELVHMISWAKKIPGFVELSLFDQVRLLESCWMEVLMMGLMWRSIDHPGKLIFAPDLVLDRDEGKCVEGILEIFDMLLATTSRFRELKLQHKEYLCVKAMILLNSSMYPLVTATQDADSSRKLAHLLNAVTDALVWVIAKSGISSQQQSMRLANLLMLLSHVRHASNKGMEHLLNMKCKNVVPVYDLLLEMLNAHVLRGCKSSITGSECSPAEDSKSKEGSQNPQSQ

One may read the pIC50 as the negative decadic logarithm of the IC50, by convention in mol/L. As for `CC12CCc3c(cc(O)c4cc(O)ccc34)C1CCC2=O` (stereo not drawn) [Compound 1, 6-Hydroxyequilenin], the results for the pIC50 at human ERβ and on human ERα were 6.91 and 5.66, respectively. In addition, the “Fold upregulation of metallothionein-II mRNA” value in assay [1] worked out at 11.

`CC12CCc3c(cc(O)c4cc(O)ccc34)C1CC[C@@H]2O` (stereo partly drawn) [Compound 5, 6-Hydroxy-3,17β-dihydroequilenin]: the negative logarithm of the IC50 (pIC50) at human ERβ is 7.80; on human ERα, 6.62. In addition, the “Fold upregulation of metallothionein-II mRNA” value in assay [1] came out at 11.
